In US20250161289A1, “KAT6 Targeting Compounds” (Prelude Therapeutics Incorporated, priority 2023, published 2025):

Biological target: T1, KAT6A (Homo sapiens, UniProt Q92794)
T1 construct: expressed in transfected cells; host or cells: HeLa
Experiment: HiBit KAT6A Degradation Assessment
Type: cell-based
Details: HeLa cells with a HiBit tagged KAT6A; for Dmax: HeLa
Procedure: The degradation activity of compounds was evaluated by measuring levels of KAT6A protein using the HiBiT system. These studies were conducted in HeLa cells with a HiBit tagged KAT6A. Cells were maintained in a 37° C. incubator at 5% CO2 in EMEM or DMEM (ATCC, 30-2003) supplemented with 10% v/v FBS (Gibco, 26140-079) and 1% penicillin streptomycin. Cells were seeded in 384-well plates at a density of 2,000 cells/well. Compounds dissolved in DMSO were added in 9-point serial dilution. After 18-24 h of treatment, KAT6A levels were measured using the Nano-Glo® HiBiT Lytic Detection System (Promega catalog number N3030) per manufacturer's instructions. Luminescence signal was measured with a multimode plate reader (Envision 2105, Perkin Elmer or PHERAStar FSX, BMG Labtech). Luminescence values were normalized to background and DMSO controls to quantify KAT6A for each condition. Results were analyzed, and DC50 and Dmax values obtained using a four-parameter logistic curve fit. The results are summarized in Table 3 (18 h of treatment) and Table 4 (24 h of treatment).

T1 sequence (Q92794 whole entry): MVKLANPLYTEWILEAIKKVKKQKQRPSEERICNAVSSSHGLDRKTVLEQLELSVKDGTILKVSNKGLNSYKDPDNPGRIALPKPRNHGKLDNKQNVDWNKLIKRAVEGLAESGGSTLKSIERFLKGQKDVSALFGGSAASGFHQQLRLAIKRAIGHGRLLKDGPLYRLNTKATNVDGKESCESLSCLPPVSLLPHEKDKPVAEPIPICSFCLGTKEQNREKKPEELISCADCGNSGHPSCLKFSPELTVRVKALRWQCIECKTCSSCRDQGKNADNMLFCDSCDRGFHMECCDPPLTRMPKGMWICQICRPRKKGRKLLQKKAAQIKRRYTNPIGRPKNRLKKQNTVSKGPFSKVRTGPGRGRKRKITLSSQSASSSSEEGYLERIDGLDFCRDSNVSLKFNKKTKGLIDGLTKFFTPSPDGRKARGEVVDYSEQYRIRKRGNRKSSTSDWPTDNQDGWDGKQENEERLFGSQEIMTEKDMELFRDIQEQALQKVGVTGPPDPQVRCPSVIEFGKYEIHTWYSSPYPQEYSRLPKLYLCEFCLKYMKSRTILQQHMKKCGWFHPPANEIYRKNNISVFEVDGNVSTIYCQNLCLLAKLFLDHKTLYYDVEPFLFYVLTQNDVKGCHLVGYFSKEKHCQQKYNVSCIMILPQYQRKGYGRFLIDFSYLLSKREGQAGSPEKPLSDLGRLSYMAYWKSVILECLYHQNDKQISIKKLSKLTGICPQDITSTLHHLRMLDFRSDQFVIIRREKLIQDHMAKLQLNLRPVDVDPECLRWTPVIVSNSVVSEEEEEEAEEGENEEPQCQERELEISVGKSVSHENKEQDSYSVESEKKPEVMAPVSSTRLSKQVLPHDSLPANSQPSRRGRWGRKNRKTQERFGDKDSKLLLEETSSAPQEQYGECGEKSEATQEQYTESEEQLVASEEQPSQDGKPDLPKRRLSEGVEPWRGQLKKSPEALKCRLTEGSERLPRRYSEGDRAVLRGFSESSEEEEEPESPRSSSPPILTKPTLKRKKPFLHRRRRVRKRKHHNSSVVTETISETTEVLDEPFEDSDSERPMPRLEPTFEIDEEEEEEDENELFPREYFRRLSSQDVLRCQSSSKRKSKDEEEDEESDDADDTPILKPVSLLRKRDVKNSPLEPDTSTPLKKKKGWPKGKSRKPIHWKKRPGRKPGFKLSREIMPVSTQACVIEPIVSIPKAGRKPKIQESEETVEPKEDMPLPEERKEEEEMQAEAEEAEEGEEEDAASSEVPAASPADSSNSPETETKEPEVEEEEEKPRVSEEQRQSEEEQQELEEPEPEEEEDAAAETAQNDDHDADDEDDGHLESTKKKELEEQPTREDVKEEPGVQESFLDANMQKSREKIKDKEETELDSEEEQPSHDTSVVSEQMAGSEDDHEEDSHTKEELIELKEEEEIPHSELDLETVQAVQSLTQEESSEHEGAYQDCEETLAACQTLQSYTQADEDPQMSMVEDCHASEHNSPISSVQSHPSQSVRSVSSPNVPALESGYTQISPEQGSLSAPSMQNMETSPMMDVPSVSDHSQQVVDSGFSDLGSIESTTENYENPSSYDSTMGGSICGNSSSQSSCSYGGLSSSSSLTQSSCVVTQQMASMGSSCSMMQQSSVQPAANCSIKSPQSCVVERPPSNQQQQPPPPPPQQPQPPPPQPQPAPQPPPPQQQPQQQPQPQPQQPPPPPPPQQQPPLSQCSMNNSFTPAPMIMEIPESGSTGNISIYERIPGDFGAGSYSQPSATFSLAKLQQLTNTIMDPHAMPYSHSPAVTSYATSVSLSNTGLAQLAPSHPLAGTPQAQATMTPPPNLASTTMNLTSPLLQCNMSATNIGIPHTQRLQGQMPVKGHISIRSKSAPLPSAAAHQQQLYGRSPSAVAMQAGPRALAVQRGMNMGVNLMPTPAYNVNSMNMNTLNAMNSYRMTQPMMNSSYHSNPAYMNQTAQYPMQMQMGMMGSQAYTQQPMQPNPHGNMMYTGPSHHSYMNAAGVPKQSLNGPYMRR

Compound | DC50 (18 h of treatment) [nM] | Dmax (18 h of treatment) [%] | DC50 (24 h of treatment) [nM] | Dmax (24 h of treatment) [%]
O=C1CC[C@H](N2Cc3cc(N4CC[C@@H](CN5CCC6(CC5)CCN(c5cccc(S(=O)(=O)Nc7noc8cc(Cn9cccn9)c9c(c78)OCC9)c5)CC6)C4)ccc3C2=O)C(=O)N1 [Example 3, N-(4-((1H-Pyrazol-1-yl)methyl)-2,3-dihydrobenzofuro[7,6-d]isoxazol-8-yl)-3-(9-(((S)-1-(2-((S)-2,6-dioxopiperidin-3-yl)-1-oxoisoindolin-5-yl)pyrrolidin-3-yl)methyl)-3,9-diazaspiro[5.5]undecan-3-yl)benzenesulfonamide] | 10 to 100 | > 75 | – | –
COc1ccc(N2CC3(CCN(CC4CCN(c5ccc6c(c5)C(=O)N(C5CCC(=O)NC5=O)C6=O)CC4)CC3)C2)c(OC)c1S(=O)(=O)Nc1noc2cc(Cn3cccn3)c3c(c12)OCC3 (stereo not shown) [Example 11, N-(4-((1H-Pyrazol-1-yl)methyl)-2,3-dihydrobenzofuro[7,6-d]isoxazol-8-yl)-3-(7-((1-(2-(2,6-dioxopiperidin-3-yl)-1,3-dioxoisoindolin-5-yl)piperidin-4-yl)methyl)-2,7-diazaspiro[3.5]nonan-2-yl)-2,6-dimethoxybenzenesulfonamide] | – | – | < 10 | 50 to 75
O=C1CCC(N2C(=O)c3ccc(N4CCC(CN5CCC(CN6CCN(c7cccc(S(=O)(=O)Nc8noc9cc(Cn%10cccn%10)c%10c(c89)OCC%10)c7)CC6)CC5)C4)cc3C2=O)C(=O)N1 (stereo not shown) [Example 8, N-(4-((1H-Pyrazol-1-yl)methyl)-2,3-dihydrobenzofuro[7,6-d]isoxazol-8-yl)-3-(4-((1-((1-(2-(2,6-dioxopiperidin-3-yl)-1,3-dioxoisoindolin-5-yl)pyrrolidin-3-yl)methyl)piperidin-4-yl)methyl)piperazin-1-yl)benzenesulfonamide] | < 10 | > 75 | – | –
O=C1CC[C@H](N2Cc3cc(N4CC[C@@H](CN5CCC6(CC5)CN(c5cccc(S(=O)(=O)Nc7noc8cc(Cn9cccn9)c9c(c78)OCC9)c5)C6)C4)ccc3C2=O)C(=O)N1 [Example 1, N-(4-((1H-Pyrazol-1-yl)methyl)-2,3-dihydrobenzofuro[7,6-d]isoxazol-8-yl)-3-(7-(((S)-1-(2-((S)-2,6-dioxopiperidin-3-yl)-1-oxoisoindolin-5-yl)pyrrolidin-3-yl)methyl)-2,7-diazaspiro[3.5]nonan-2-yl)benzenesulfonamide] | < 10 | > 75 | 10 to 100 | 50 to 75
O=C1CCC(N2C(=O)c3cccc(N4CCC(CN5CCN(c6cccc(S(=O)(=O)Nc7noc8cc(Cn9cccn9)c9c(c78)OCC9)c6)CC5)CC4)c3C2=O)C(=O)N1 (stereo not shown) [Example 7, N-(4-((1H-Pyrazol-1-yl)methyl)-2,3-dihydrobenzofuro[7,6-d]isoxazol-8-yl)-3-(4-((1-(2-(2,6-dioxopiperidin-3-yl)-1,3-dioxoisoindolin-4-yl)piperidin-4-yl)methyl)piperazin-1-yl)benzenesulfonamide] | 100 to 1000 | 50 to 75 | – | –
COc1c(N2CC3(CCN(CC4CCN(c5ccc6c(c5)C(=O)N(C5CCC(=O)NC5=O)C6=O)CC4)CC3)C2)cccc1S(=O)(=O)Nc1noc2cc(Cn3cccn3)c3c(c12)OCC3 (stereo not shown) [Example 12, N-(4-((1H-Pyrazol-1-yl)methyl)-2,3-dihydrobenzofuro[7,6-d]isoxazol-8-yl)-3-(7-((1-(2-(2,6-dioxopiperidin-3-yl)-1,3-dioxoisoindolin-5-yl)piperidin-4-yl)methyl)-2,7-diazaspiro[3.5]nonan-2-yl)-2-methoxybenzenesulfonamide] | – | – | 10 to 100 | > 75
O=C1CC[C@H](N2Cc3cc(N4CC[C@@H](CN5CCC6(CC5)CN(c5ccc(S(=O)(=O)Nc7noc8cc(Cn9cccn9)c9c(c78)OCC9)cc5)C6)C4)ccc3C2=O)C(=O)N1 [Example 15, N-(4-((1H-Pyrazol-1-yl)methyl)-2,3-dihydrobenzofuro[7,6-d]isoxazol-8-yl)-4-(7-(((S)-1-(2-((S)-2,6-dioxopiperidin-3-yl)-1-oxoisoindolin-5-yl)pyrrolidin-3-yl)methyl)-2,7-diazaspiro[3.5]nonan-2-yl)benzenesulfonamide] | – | – | 10 to 100 | 50 to 75

More lines, now with the values ahead:

DC50 (18 h of treatment) [nM] | Dmax (18 h of treatment) [%] | DC50 (24 h of treatment) [nM] | Dmax (24 h of treatment) [%] | Compound
100 to 1000 | 50 to 75 | – | – | O=C1CCC(N2C(=O)c3ccc(N4CCC5(CC4)CC(N4CCN(c6cccc(S(=O)(=O)Nc7noc8cc(Cn9cccn9)c9c(c78)OCC9)c6)CC4)C5)cc3C2=O)C(=O)N1 (stereo not shown) [Example 6, N-(4-((1H-Pyrazol-1-yl)methyl)-2,3-dihydrobenzofuro[7,6-d]isoxazol-8-yl)-3-(4-(7-(2-(2,6-dioxopiperidin-3-yl)-1,3-dioxoisoindolin-5-yl)-7-azaspiro[3.5]nonan-2-yl)piperazin-1-yl)benzenesulfonamide]
– | – | < 10 | > 75 | COc1c(N2CC3(CCN(C[C@@H]4CCN(c5ccc6c(c5)CN([C@H]5CCC(=O)NC5=O)C6=O)C4)CC3)C2)cccc1S(=O)(=O)Nc1noc2cc(Cn3cccn3)c3c(c12)OCC3 [Example 13, N-(4-((1H-Pyrazol-1-yl)methyl)-2,3-dihydrobenzofuro[7,6-d]isoxazol-8-yl)-3-(7-(((S)-1-(2-((S)-2,6-dioxopiperidin-3-yl)-1-oxoisoindolin-5-yl)pyrrolidin-3-yl)methyl)-2,7-diazaspiro[3.5]nonan-2-yl)-2-methoxybenzenesulfonamide]
– | – | < 10 | > 75 | COc1c(N2CC3(CCN(CC4CCN(c5cccc6c5C(=O)N(C5CCC(=O)NC5=O)C6=O)CC4)CC3)C2)cccc1S(=O)(=O)Nc1noc2cc(Cn3cccn3)c3c(c12)OCC3 (stereo not shown) [Example 14, N-(4-((1H-Pyrazol-1-yl)methyl)-2,3-dihydrobenzofuro[7,6-d]isoxazol-8-yl)-3-(7-((1-(2-(2,6-dioxopiperidin-3-yl)-1,3-dioxoisoindolin-4-yl)piperidin-4-yl)methyl)-2,7-diazaspiro[3.5]nonan-2-yl)-2-methoxybenzenesulfonamide]
– | – | < 10 | > 75 | COc1ccc(N2CC3(CCN(C[C@@H]4CCN(c5ccc6c(c5)CN([C@H]5CCC(=O)NC5=O)C6=O)C4)CC3)C2)c(OC)c1S(=O)(=O)Nc1noc2cc(Cn3cccn3)c3c(c12)OCC3 [Example 10, N-(4-((1H-Pyrazol-1-yl)methyl)-2,3-dihydrobenzofuro[7,6-d]isoxazol-8-yl)-3-(7-(((S)-1-(2-((S)-2,6-dioxopiperidin-3-yl)-1-oxoisoindolin-5-yl)pyrrolidin-3-yl)methyl)-2,7-diazaspiro[3.5]nonan-2-yl)-2,6-dimethoxybenzenesulfonamide]
10 to 100 | > 75 | – | – | O=C1CC[C@H](N2Cc3cc(N4CC[C@@H](CN5C[C@H]6CN(c7cccc(S(=O)(=O)Nc8noc9cc(Cn%10cccn%10)c%10c(c89)OCC%10)c7)C[C@@H]6C5)C4)ccc3C2=O)C(=O)N1 [Example 2, N-(4-((1H-Pyrazol-1-yl)methyl)-2,3-dihydrobenzofuro[7,6-d]isoxazol-8-yl)-3-((3aS,6aS)-5-(((S)-1-(2-((S)-2,6-dioxopiperidin-3-yl)-1-oxoisoindolin-5-yl)pyrrolidin-3-yl)methyl)hexahydropyrrolo[3,4-c]pyrrol-2(1H)-yl)benzenesulfonamide]
< 10 | 50 to 75 | – | – | O=C1CCC(N2C(=O)c3ccc(N4CCC(CN5CCC(CN6CCN(c7cccc(S(=O)(=O)Nc8noc9cc(Cn%10cccn%10)c%10c(c89)OCC%10)c7)CC6)CC5)CC4)cc3C2=O)C(=O)N1 (stereo not shown) [Example 9, N-(4-((1H-Pyrazol-1-yl)methyl)-2,3-dihydrobenzofuro[7,6-d]isoxazol-8-yl)-3-(4-((1-((1-(2-(2,6-dioxopiperidin-3-yl)-1,3-dioxoisoindolin-5-yl)piperidin-4-yl)methyl)piperidin-4-yl)methyl)piperazin-1-yl)benzenesulfonamide]
– | 25 to 50 | – | – | O=C1CC[C@H](N2Cc3cc(N4CC[C@@H](CNC5CCN(c6cccc(S(=O)(=O)Nc7noc8cc(Cn9cccn9)c9c(c78)OCC9)c6)CC5)C4)ccc3C2=O)C(=O)N1 [Example 5, N-(4-((1H-Pyrazol-1-yl)methyl)-2,3-dihydrobenzofuro[7,6-d]isoxazol-8-yl)-3-(4-((((S)-1-(2-((S)-2,6-dioxopiperidin-3-yl)-1-oxoisoindolin-5-yl)pyrrolidin-3-yl)methyl)amino)piperidin-1-yl)benzenesulfonamide]
10 to 100 | > 75 | – | – | O=C1CC[C@H](N2Cc3cc(N4CC[C@@H](CN5CC6(CCN(c7cccc(S(=O)(=O)Nc8noc9cc(Cn%10cccn%10)c%10c(c89)OCC%10)c7)CC6)C5)C4)ccc3C2=O)C(=O)N1 [Example 4, N-(4-((1H-Pyrazol-1-yl)methyl)-2,3-dihydrobenzofuro[7,6-d]isoxazol-8-yl)-3-(2-(((S)-1-(2-((S)-2,6-dioxopiperidin-3-yl)-1-oxoisoindolin-5-yl)pyrrolidin-3-yl)methyl)-2,7-diazaspiro[3.5]nonan-7-yl)benzenesulfonamide]
